The results in this text go back to US20120283208A1, “ANTIBACTERIAL AMINOGLYCOSIDE ANALOGS” (Achaogen, Inc., priority 2009, published 2012).

≈ marks a conversion by molar mass, not a printed value. A value given as a limit tells only on which side of the number the result lay.

The test system of one assay is E. coli ATCC 25922. The experiment in a line: MIC broth microdilution, AECO001. It counts as cell-based. Conditions: Escherichia coli; AECO001 is ATCC25922; Mueller Hinton Broth, 35 C, 20 hours. How it is done: (§1) Minimum inhibitory concentrations (MIC) were determined by reference Clinical and Laboratory Standards Institute (CLSI) broth microdilution methods per M7-A7 [2006]. Quality control ranges utilizing E. coli ATCC 25922, P. aeruginosa ATCC 27853 and S. aureus ATCC 29213, and interpretive criteria for comparator agents were as published in CLSI M100-S17 [2007]. Briefly, serial two-fold dilutions of the test compounds were prepared at 2× concentration in Mueller Hinton Broth. The compound dilutions were mixed in 96-well assay plates in a 1:1 ratio with bacterial inoculum. The inoculum was prepared by suspension of a colony from an agar plate that was prepared the previous day. Bacteria were suspended in sterile saline and added to each assay plate to obtain a final concentration of 5×10^5 CFU/mL. The plates were incubated at 35 C for 20 hours in ambient air.

For a further assay, the system named is P. aeruginosa ATCC 27853. The experiment in a line: MIC broth microdilution, APAE001. It is filed as cell-based. To be noted: Pseudomonas aeruginosa; APAE001 is ATCC27853; Mueller Hinton Broth, 35 C, 20 hours. How it is done:
as §1
In general terms: Dilution methods test growth across graded concentrations, often in twofold steps.

Turning to `NC[C@@H](O)[C@H](O)C(=O)N[C@@H]1C[C@H](N)[C@@H](O[C@H]2O[C@H](CNCCO)[C@@H](O)C[C@H]2N)[C@H](O[C@@H]2O[C@H](CO)[C@@H](O[C@H]3O[C@@H](CN)[C@@H](O)[C@H](O)[C@H]3N)[C@H]2O)[C@H]1O` [3/3], the MIC with E. coli ATCC 25922 was 1 to 16 µg/mL (≈ 1.32 to 21.1 µM); with P. aeruginosa ATCC 27853, not above 1 µg/mL.

As to `NC[C@@H]1O[C@H](O[C@H]2[C@@H](O)[C@H](O[C@@H]3[C@@H](O)[C@H](NC(=O)C4(O)CNC4)C[C@H](N)[C@H]3O[C@H]3O[C@H](CNCCO)[C@@H](O)C[C@H]3N)O[C@@H]2CO)[C@H](N)[C@@H](O)[C@@H]1O` [1/16], the MIC in the assay on E. coli ATCC 25922 was 1 to 16 µg/mL (≈ 1.35 to 21.6 µM); in the assay on P. aeruginosa ATCC 27853 it was not above 1 µg/mL.

Take `NC[C@@H]1O[C@H](O[C@H]2[C@@H](O)[C@H](O[C@@H]3[C@@H](O)[C@H](NC(=O)[C@]4(O)C[C@H](N)C4)C[C@H](N)[C@H]3O[C@H]3O[C@H](CNCCO)[C@@H](O)C[C@H]3N)O[C@@H]2CO)[C@H](N)[C@@H](O)[C@@H]1O` [2/9]: the values for the MIC against E. coli ATCC 25922 and against P. aeruginosa ATCC 27853 were 1 to 16 µg/mL (≈ 1.32 to 21.2 µM) and not above 1 µg/mL, respectively.

In the case of `NC[C@@H]1O[C@H](O[C@H]2[C@@H](O)[C@H](O[C@@H]3[C@@H](O)[C@H](NC(=O)[C@@H](O)[C@@H](O)CN)C[C@H](N)[C@H]3O[C@H]3O[C@H](CNCCO)[C@@H](O)C[C@H]3N)O[C@@H]2CO)[C@H](N)[C@@H](O)[C@@H]1O` [4/3], the MIC in the assay with E. coli ATCC 25922 is 1 to 16 µg/mL (≈ 1.32 to 21.1 µM); against P. aeruginosa ATCC 27853 it was not above 1 µg/mL.

On to `NC[C@@H](F)[C@H](O)C(=O)N[C@@H]1C[C@H](N)[C@@H](O[C@H]2O[C@H](CNCCO)[C@@H](O)C[C@H]2N)[C@H](O[C@@H]2O[C@H](CO)[C@@H](O[C@H]3O[C@@H](CN)[C@@H](O)[C@H](O)[C@H]3N)[C@H]2O)[C@H]1O` [5/3], for which the MIC in the assay with E. coli ATCC 25922 is 1 to 16 µg/mL (≈ 1.31 to 21 µM); against P. aeruginosa ATCC 27853, not above 1 µg/mL.

For the molecule `NC[C@@H]1O[C@H](O[C@H]2[C@@H](O)[C@H](O[C@@H]3[C@@H](O)[C@H](NC(=O)[C@@H](O)C(F)(F)CN)C[C@H](N)[C@H]3O[C@H]3O[C@H](CNCCO)[C@@H](O)C[C@H]3N)O[C@@H]2CO)[C@H](N)[C@@H](O)[C@@H]1O` [6/3], the MIC with E. coli ATCC 25922 and in the assay on P. aeruginosa ATCC 27853 was 1 to 16 µg/mL (≈ 1.28 to 20.5 µM) each time.

By MIC is commonly meant the smallest concentration in the dilution series that meets the test's criterion for growth inhibition. Read a high MIC as a less susceptible organism.
